From ChEMBL document CHEMBL1145498, “A systematic interaction map of validated kinase inhibitors with Ser/Thr kinases” (Proc Natl Acad Sci U S A, 2007)

biological target: Calcium/calmodulin-dependent protein kinase type 1G (Homo sapiens) (UniProt Q96NX5)
Sequence (Q96NX5 whole entry): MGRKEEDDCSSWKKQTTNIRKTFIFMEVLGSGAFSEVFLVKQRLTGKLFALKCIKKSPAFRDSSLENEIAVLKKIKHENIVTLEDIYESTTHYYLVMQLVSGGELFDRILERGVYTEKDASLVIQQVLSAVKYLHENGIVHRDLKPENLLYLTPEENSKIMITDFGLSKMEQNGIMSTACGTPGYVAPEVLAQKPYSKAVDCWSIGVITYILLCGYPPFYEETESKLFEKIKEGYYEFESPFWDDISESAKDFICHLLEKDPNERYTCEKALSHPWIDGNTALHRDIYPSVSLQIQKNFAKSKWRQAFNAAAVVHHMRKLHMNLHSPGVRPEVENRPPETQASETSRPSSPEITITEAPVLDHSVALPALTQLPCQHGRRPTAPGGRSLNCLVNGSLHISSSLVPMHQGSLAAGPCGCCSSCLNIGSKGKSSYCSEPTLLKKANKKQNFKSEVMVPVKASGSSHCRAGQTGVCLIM

Row | Structure (SMILES) | ΔTm
1 | C/C(O)=C(\C#N)C(=O)Nc1cc(Br)ccc1Br | -0.1 °C
2 | COc1cc(/C=C/C(=O)CC(=O)/C=C/c2ccc(O)c(OC)c2)ccc1O [CURCUMIN] | 1.3 °C
3 | O=c1c(O)c(-c2ccc(O)c(O)c2)oc2cc(O)cc(O)c12 [QUERCETIN] | 2.7 °C
4 | CCOC(=O)c1c(C)[nH]c(/C=C2\C(=O)Nc3ccccc32)c1C | -1.3 °C

biological target: Calcium/calmodulin-dependent protein kinase type II subunit alpha (Homo sapiens) (UniProt Q9UQM7)

Row | Structure (SMILES) | ΔTm
5 | C/C(O)=C(\C#N)C(=O)Nc1cc(Br)ccc1Br | 0.1 °C
6 | COc1cc(/C=C/C(=O)CC(=O)/C=C/c2ccc(O)c(OC)c2)ccc1O [CURCUMIN] | -0.1 °C
7 | O=c1c(O)c(-c2ccc(O)c(O)c2)oc2cc(O)cc(O)c12 [QUERCETIN] | 4.1 °C
8 | CCOC(=O)c1c(C)[nH]c(/C=C2\C(=O)Nc3ccccc32)c1C | -0.6 °C

biological target: Calcium/calmodulin-dependent protein kinase type II subunit beta (Homo sapiens) (UniProt Q13554)

Row | Structure (SMILES) | ΔTm
9 | C/C(O)=C(\C#N)C(=O)Nc1cc(Br)ccc1Br | 0 °C
10 | COc1cc(/C=C/C(=O)CC(=O)/C=C/c2ccc(O)c(OC)c2)ccc1O [CURCUMIN] | 1 °C
11 | O=c1c(O)c(-c2ccc(O)c(O)c2)oc2cc(O)cc(O)c12 [QUERCETIN] | 2.9 °C
12 | CCOC(=O)c1c(C)[nH]c(/C=C2\C(=O)Nc3ccccc32)c1C | 0.7 °C

biological target: Calcium/calmodulin-dependent protein kinase type II subunit delta (Homo sapiens) (UniProt Q13557)
Sequence (Q13557 whole entry): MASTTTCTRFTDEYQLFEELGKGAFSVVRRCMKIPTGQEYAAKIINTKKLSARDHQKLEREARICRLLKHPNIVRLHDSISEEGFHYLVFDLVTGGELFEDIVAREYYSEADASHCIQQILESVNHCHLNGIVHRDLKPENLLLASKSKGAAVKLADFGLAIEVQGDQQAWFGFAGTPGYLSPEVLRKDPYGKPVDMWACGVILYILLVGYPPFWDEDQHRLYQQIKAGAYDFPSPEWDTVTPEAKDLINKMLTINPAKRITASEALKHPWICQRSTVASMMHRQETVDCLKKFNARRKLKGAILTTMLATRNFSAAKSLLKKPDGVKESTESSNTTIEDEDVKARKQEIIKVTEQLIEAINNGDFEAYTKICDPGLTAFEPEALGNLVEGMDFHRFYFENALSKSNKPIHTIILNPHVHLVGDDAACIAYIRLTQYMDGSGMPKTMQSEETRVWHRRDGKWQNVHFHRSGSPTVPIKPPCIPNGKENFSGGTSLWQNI

Row | Structure (SMILES) | ΔTm
13 | C/C(O)=C(\C#N)C(=O)Nc1cc(Br)ccc1Br | 0.5 °C
14 | COc1cc(/C=C/C(=O)CC(=O)/C=C/c2ccc(O)c(OC)c2)ccc1O [CURCUMIN] | 0.1 °C
15 | O=c1c(O)c(-c2ccc(O)c(O)c2)oc2cc(O)cc(O)c12 [QUERCETIN] | 2.7 °C
16 | CCOC(=O)c1c(C)[nH]c(/C=C2\C(=O)Nc3ccccc32)c1C | 0.4 °C

biological target: Calcium/calmodulin-dependent protein kinase type II subunit gamma (Homo sapiens) (UniProt Q13555)
Sequence (Q13555 whole entry): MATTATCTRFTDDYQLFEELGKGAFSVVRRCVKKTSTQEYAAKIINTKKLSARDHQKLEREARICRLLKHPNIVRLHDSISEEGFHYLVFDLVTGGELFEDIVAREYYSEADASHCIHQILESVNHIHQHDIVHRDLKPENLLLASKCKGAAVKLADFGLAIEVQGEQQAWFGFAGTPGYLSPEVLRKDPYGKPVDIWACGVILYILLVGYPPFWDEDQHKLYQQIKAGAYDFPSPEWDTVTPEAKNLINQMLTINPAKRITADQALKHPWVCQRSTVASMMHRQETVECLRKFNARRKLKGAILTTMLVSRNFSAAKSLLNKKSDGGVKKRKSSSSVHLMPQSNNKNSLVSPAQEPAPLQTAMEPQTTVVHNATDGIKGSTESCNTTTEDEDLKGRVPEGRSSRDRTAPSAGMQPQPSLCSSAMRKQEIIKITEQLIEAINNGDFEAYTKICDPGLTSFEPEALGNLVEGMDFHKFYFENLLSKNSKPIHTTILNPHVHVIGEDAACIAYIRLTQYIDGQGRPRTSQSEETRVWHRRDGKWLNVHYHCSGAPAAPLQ

Row | Structure (SMILES) | ΔTm
17 | C/C(O)=C(\C#N)C(=O)Nc1cc(Br)ccc1Br | -0.1 °C
18 | COc1cc(/C=C/C(=O)CC(=O)/C=C/c2ccc(O)c(OC)c2)ccc1O [CURCUMIN] | -0.2 °C
19 | O=c1c(O)c(-c2ccc(O)c(O)c2)oc2cc(O)cc(O)c12 [QUERCETIN] | 4.9 °C
20 | CCOC(=O)c1c(C)[nH]c(/C=C2\C(=O)Nc3ccccc32)c1C | -0.1 °C

biological target: Dual specificity protein kinase CLK2 (Homo sapiens) (UniProt P49760)

Row | Structure (SMILES) | ΔTm
21 | C/C(O)=C(\C#N)C(=O)Nc1cc(Br)ccc1Br | 0.5 °C
22 | COc1cc(/C=C/C(=O)CC(=O)/C=C/c2ccc(O)c(OC)c2)ccc1O [CURCUMIN] | 2.6 °C
23 | O=c1c(O)c(-c2ccc(O)c(O)c2)oc2cc(O)cc(O)c12 [QUERCETIN] | 4.9 °C
24 | CCOC(=O)c1c(C)[nH]c(/C=C2\C(=O)Nc3ccccc32)c1C | 0.6 °C

biological target: Dual specificity protein kinase CLK3 (Homo sapiens) (UniProt P49761)
Sequence (P49761 whole entry, looked up): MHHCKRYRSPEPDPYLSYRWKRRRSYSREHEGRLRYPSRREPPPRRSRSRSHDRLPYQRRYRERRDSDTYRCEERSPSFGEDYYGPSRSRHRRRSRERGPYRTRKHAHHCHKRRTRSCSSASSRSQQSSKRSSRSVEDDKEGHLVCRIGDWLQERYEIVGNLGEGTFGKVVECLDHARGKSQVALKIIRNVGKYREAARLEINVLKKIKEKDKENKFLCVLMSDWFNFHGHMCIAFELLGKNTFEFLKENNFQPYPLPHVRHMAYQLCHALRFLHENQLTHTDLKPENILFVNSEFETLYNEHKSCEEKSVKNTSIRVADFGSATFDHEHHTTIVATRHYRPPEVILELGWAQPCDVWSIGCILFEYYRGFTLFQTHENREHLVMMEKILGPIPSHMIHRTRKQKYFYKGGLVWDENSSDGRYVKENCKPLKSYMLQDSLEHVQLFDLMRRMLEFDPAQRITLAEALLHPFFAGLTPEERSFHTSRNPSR

Row | Structure (SMILES) | ΔTm
25 | C/C(O)=C(\C#N)C(=O)Nc1cc(Br)ccc1Br | 0.3 °C
26 | COc1cc(/C=C/C(=O)CC(=O)/C=C/c2ccc(O)c(OC)c2)ccc1O [CURCUMIN] | 3.6 °C
27 | O=c1c(O)c(-c2ccc(O)c(O)c2)oc2cc(O)cc(O)c12 [QUERCETIN] | 5.4 °C
28 | CCOC(=O)c1c(C)[nH]c(/C=C2\C(=O)Nc3ccccc32)c1C | -0.1 °C

biological target: Casein kinase I isoform gamma-1 (Homo sapiens) (UniProt Q9HCP0)
Sequence (Q9HCP0 whole entry, looked up, canonical isoform): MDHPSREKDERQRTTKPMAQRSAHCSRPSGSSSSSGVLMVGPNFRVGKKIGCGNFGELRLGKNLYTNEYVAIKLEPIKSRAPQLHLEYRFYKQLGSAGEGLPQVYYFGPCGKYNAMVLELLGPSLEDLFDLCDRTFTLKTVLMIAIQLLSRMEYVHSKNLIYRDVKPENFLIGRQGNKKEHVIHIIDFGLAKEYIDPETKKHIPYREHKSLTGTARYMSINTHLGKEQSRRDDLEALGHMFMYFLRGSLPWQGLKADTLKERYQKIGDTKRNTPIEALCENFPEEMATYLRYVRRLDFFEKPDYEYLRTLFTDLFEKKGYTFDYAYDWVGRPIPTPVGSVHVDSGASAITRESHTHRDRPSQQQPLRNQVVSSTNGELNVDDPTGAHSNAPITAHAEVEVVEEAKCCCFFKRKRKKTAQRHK

Row | Structure (SMILES) | ΔTm
29 | C/C(O)=C(\C#N)C(=O)Nc1cc(Br)ccc1Br | 0.7 °C
30 | COc1cc(/C=C/C(=O)CC(=O)/C=C/c2ccc(O)c(OC)c2)ccc1O [CURCUMIN] | 4.5 °C
31 | O=c1c(O)c(-c2ccc(O)c(O)c2)oc2cc(O)cc(O)c12 [QUERCETIN] | 3.2 °C
32 | CCOC(=O)c1c(C)[nH]c(/C=C2\C(=O)Nc3ccccc32)c1C | -11.4 °C

biological target: Death-associated protein kinase 3 (Homo sapiens) (UniProt O43293)

Row | Structure (SMILES) | ΔTm
33 | C/C(O)=C(\C#N)C(=O)Nc1cc(Br)ccc1Br | 0.7 °C
34 | COc1cc(/C=C/C(=O)CC(=O)/C=C/c2ccc(O)c(OC)c2)ccc1O [CURCUMIN] | 1.8 °C
35 | O=c1c(O)c(-c2ccc(O)c(O)c2)oc2cc(O)cc(O)c12 [QUERCETIN] | 7.5 °C
36 | CCOC(=O)c1c(C)[nH]c(/C=C2\C(=O)Nc3ccccc32)c1C | 0 °C

biological target: T1, Myotonin-protein kinase (Homo sapiens) (UniProt Q09013)
T1 sequence (whole entry): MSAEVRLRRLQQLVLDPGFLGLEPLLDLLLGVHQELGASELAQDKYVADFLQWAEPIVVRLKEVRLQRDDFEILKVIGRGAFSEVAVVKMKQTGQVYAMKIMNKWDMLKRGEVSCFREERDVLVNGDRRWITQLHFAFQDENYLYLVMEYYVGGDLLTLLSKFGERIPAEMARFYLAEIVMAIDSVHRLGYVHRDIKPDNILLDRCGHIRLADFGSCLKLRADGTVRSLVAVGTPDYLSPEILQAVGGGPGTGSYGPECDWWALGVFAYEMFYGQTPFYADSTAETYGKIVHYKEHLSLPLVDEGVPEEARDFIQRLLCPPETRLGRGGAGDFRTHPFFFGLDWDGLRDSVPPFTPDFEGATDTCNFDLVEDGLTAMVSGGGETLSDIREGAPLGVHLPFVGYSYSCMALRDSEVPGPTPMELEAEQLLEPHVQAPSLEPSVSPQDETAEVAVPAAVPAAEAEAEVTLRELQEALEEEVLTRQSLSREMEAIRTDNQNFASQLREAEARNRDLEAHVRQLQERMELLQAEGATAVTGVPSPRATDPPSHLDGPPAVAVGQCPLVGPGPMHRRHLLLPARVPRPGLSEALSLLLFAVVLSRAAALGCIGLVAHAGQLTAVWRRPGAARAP

Row | Structure (SMILES) | ΔTm
37 | C/C(O)=C(\C#N)C(=O)Nc1cc(Br)ccc1Br | 0 °C
38 | COc1cc(/C=C/C(=O)CC(=O)/C=C/c2ccc(O)c(OC)c2)ccc1O [CURCUMIN] | 1.5 °C
39 | O=c1c(O)c(-c2ccc(O)c(O)c2)oc2cc(O)cc(O)c12 [QUERCETIN] | 3 °C
40 | CCOC(=O)c1c(C)[nH]c(/C=C2\C(=O)Nc3ccccc32)c1C | 0.5 °C

biological target: Dual specificity mitogen-activated protein kinase kinase 2 (Homo sapiens, UniProt P36507)

Row | Structure (SMILES) | ΔTm
41 | C/C(O)=C(\C#N)C(=O)Nc1cc(Br)ccc1Br | -0.2 °C
42 | COc1cc(/C=C/C(=O)CC(=O)/C=C/c2ccc(O)c(OC)c2)ccc1O [CURCUMIN] | 2.8 °C
43 | O=c1c(O)c(-c2ccc(O)c(O)c2)oc2cc(O)cc(O)c12 [QUERCETIN] | 2.4 °C
44 | CCOC(=O)c1c(C)[nH]c(/C=C2\C(=O)Nc3ccccc32)c1C | 0.4 °C

biological target: T2, Dual specificity mitogen-activated protein kinase kinase 6 (Homo sapiens) (UniProt P52564)
T2 sequence (whole entry): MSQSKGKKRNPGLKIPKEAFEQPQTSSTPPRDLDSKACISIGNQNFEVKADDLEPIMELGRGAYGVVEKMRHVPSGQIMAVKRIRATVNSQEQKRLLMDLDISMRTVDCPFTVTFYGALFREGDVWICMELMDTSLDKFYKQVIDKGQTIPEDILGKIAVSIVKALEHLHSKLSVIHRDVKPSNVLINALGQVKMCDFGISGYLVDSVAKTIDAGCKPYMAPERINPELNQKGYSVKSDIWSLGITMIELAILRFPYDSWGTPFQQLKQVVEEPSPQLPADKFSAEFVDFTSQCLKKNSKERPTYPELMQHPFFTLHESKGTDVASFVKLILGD

Row | Structure (SMILES) | ΔTm
45 | C/C(O)=C(\C#N)C(=O)Nc1cc(Br)ccc1Br | 0.2 °C
46 | COc1cc(/C=C/C(=O)CC(=O)/C=C/c2ccc(O)c(OC)c2)ccc1O [CURCUMIN] | 4 °C
47 | O=c1c(O)c(-c2ccc(O)c(O)c2)oc2cc(O)cc(O)c12 [QUERCETIN] | 3.6 °C
48 | CCOC(=O)c1c(C)[nH]c(/C=C2\C(=O)Nc3ccccc32)c1C | 0 °C

biological target: Mitogen-activated protein kinase 3 (Homo sapiens, UniProt P27361)
Sequence (P27361 whole entry): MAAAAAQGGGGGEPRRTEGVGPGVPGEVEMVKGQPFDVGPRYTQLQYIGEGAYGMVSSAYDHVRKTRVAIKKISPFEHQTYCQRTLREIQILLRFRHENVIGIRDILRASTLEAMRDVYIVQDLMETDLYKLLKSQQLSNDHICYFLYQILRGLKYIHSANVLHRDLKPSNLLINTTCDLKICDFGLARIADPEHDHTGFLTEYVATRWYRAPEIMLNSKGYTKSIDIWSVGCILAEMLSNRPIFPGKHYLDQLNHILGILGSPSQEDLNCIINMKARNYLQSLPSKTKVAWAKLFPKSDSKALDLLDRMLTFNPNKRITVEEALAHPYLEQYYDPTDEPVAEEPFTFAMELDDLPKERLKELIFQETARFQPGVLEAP

Row | Structure (SMILES) | ΔTm
49 | C/C(O)=C(\C#N)C(=O)Nc1cc(Br)ccc1Br | 0.3 °C
50 | COc1cc(/C=C/C(=O)CC(=O)/C=C/c2ccc(O)c(OC)c2)ccc1O [CURCUMIN] | 0.8 °C
51 | O=c1c(O)c(-c2ccc(O)c(O)c2)oc2cc(O)cc(O)c12 [QUERCETIN] | 1.9 °C
52 | CCOC(=O)c1c(C)[nH]c(/C=C2\C(=O)Nc3ccccc32)c1C | -0.4 °C

biological target: Mitogen-activated protein kinase 6 (Homo sapiens) (UniProt Q16659)

Row | Structure (SMILES) | ΔTm
53 | C/C(O)=C(\C#N)C(=O)Nc1cc(Br)ccc1Br | 0.4 °C
54 | COc1cc(/C=C/C(=O)CC(=O)/C=C/c2ccc(O)c(OC)c2)ccc1O [CURCUMIN] | 1.8 °C
55 | O=c1c(O)c(-c2ccc(O)c(O)c2)oc2cc(O)cc(O)c12 [QUERCETIN] | 0.8 °C
56 | CCOC(=O)c1c(C)[nH]c(/C=C2\C(=O)Nc3ccccc32)c1C | -0.1 °C

biological target: Serine/threonine-protein kinase OSR1 (Homo sapiens) (UniProt O95747)
Sequence (O95747 2-527 limits assumed): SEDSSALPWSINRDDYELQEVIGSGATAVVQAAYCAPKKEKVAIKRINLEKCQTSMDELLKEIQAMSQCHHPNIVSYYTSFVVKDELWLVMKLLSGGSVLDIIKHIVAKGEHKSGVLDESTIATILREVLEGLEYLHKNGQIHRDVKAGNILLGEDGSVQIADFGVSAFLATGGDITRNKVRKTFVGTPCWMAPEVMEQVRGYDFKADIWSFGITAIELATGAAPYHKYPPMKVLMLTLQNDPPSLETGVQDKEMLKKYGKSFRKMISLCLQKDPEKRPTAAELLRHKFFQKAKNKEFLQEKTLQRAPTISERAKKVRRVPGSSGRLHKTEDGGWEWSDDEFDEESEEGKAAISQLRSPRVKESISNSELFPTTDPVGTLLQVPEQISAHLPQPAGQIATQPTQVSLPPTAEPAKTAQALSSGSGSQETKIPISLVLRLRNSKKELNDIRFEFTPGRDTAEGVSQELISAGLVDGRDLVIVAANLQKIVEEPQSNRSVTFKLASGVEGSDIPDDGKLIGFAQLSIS

Row | Structure (SMILES) | ΔTm
57 | C/C(O)=C(\C#N)C(=O)Nc1cc(Br)ccc1Br | 1.1 °C
58 | COc1cc(/C=C/C(=O)CC(=O)/C=C/c2ccc(O)c(OC)c2)ccc1O [CURCUMIN] | 3.7 °C
59 | O=c1c(O)c(-c2ccc(O)c(O)c2)oc2cc(O)cc(O)c12 [QUERCETIN] | 7.4 °C
60 | CCOC(=O)c1c(C)[nH]c(/C=C2\C(=O)Nc3ccccc32)c1C | -0.1 °C

biological target: Serine/threonine-protein kinase PLK1 (Homo sapiens) (UniProt P53350)

Row | Structure (SMILES) | ΔTm
61 | C/C(O)=C(\C#N)C(=O)Nc1cc(Br)ccc1Br | 1.3 °C
62 | COc1cc(/C=C/C(=O)CC(=O)/C=C/c2ccc(O)c(OC)c2)ccc1O [CURCUMIN] | 2 °C
63 | O=c1c(O)c(-c2ccc(O)c(O)c2)oc2cc(O)cc(O)c12 [QUERCETIN] | 1.7 °C
64 | CCOC(=O)c1c(C)[nH]c(/C=C2\C(=O)Nc3ccccc32)c1C | -0.6 °C

biological target: TRAF2 and NCK-interacting protein kinase (Homo sapiens) (UniProt Q9UKE5)
Sequence (Q9UKE5 whole entry, looked up): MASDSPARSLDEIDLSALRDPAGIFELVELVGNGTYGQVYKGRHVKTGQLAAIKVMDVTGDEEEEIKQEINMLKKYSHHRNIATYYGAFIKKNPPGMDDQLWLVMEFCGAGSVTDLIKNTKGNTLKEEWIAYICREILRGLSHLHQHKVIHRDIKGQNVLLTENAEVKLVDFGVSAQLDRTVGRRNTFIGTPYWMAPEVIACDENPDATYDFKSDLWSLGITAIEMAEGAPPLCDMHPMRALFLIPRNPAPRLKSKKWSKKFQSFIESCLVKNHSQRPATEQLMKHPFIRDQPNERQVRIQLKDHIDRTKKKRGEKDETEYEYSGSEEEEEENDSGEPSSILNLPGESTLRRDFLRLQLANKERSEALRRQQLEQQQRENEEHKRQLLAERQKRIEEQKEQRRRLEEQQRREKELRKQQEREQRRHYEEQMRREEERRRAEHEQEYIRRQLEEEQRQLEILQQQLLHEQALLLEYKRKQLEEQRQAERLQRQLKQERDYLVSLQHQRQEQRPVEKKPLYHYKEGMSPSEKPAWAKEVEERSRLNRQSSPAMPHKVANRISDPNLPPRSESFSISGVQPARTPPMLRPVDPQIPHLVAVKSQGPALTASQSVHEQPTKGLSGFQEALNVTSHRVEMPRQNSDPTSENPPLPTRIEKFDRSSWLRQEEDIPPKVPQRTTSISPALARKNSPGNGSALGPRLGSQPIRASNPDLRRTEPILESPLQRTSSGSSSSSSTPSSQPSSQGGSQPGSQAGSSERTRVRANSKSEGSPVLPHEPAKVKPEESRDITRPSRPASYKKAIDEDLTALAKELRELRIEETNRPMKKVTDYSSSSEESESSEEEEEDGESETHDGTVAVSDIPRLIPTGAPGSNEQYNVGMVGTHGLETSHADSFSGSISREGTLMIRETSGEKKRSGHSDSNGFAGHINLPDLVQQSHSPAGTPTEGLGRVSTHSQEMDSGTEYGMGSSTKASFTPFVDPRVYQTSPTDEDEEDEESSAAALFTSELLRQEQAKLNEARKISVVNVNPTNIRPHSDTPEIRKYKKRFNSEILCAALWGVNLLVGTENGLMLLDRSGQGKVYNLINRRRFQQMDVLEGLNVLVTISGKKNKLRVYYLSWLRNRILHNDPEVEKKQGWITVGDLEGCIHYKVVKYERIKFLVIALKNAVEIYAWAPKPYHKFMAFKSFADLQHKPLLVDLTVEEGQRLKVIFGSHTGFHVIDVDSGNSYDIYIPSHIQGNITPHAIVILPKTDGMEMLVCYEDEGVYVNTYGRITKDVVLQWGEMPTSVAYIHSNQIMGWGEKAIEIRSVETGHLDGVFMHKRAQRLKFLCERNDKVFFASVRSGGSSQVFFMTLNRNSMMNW

Row | Structure (SMILES) | ΔTm
65 | C/C(O)=C(\C#N)C(=O)Nc1cc(Br)ccc1Br | -0.1 °C
66 | COc1cc(/C=C/C(=O)CC(=O)/C=C/c2ccc(O)c(OC)c2)ccc1O [CURCUMIN] | 5.9 °C
67 | O=c1c(O)c(-c2ccc(O)c(O)c2)oc2cc(O)cc(O)c12 [QUERCETIN] | 3.3 °C
68 | CCOC(=O)c1c(C)[nH]c(/C=C2\C(=O)Nc3ccccc32)c1C | 0.4 °C

biological target: T3, Serine/threonine-protein kinase VRK1 (Homo sapiens) (UniProt Q99986)
T3 sequence (whole entry): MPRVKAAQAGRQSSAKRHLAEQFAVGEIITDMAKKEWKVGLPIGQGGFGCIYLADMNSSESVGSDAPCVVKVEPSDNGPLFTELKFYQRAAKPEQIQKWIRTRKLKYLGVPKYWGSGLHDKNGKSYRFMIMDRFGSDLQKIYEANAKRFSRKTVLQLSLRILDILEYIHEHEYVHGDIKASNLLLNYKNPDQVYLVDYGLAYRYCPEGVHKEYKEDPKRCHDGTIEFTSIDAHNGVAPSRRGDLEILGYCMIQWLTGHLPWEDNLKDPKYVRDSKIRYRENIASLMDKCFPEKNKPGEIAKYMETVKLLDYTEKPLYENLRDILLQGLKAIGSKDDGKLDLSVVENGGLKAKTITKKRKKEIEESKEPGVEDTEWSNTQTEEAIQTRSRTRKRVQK

Row | Structure (SMILES) | ΔTm
69 | C/C(O)=C(\C#N)C(=O)Nc1cc(Br)ccc1Br | 0 °C
70 | COc1cc(/C=C/C(=O)CC(=O)/C=C/c2ccc(O)c(OC)c2)ccc1O [CURCUMIN] | 1 °C
71 | O=c1c(O)c(-c2ccc(O)c(O)c2)oc2cc(O)cc(O)c12 [QUERCETIN] | 1.4 °C
72 | CCOC(=O)c1c(C)[nH]c(/C=C2\C(=O)Nc3ccccc32)c1C | -1.7 °C
